Experimental data as given in BigSolDB 2.1.

O=[N+]([O-])c1cn[nH]c1[N+](=O)[O-]
solubility (mole fraction)
Conditions | 283.15 K | 288.15 K | 293.15 K | 298.15 K | 303.15 K | 308.15 K | 313.15 K | 318.15 K | 323.15 K
in 2-butanone | 0.429 | 0.45 | 0.476 | 0.498 | 0.525 | 0.554 | 0.578 | 0.602 | 0.645
in THF | 0.51 | 0.525 | 0.598 | 0.631 | 0.684 | 0.735 | 0.792 | 0.837 | 0.886
in acetonitrile | 0.0745 | 0.0772 | 0.085 | 0.0912 | 0.0968 | 0.105 | 0.11 | 0.12 | 0.133
in chloroform | 0.00071 | 0.00094 | 0.00113 | 0.00152 | 0.00211 | 0.00277 | 0.0035 | 0.00476 | 0.00693
in epichlorohydrin | 0.0361 | 0.0395 | 0.0422 | 0.0467 | 0.0498 | 0.0536 | 0.0582 | 0.0634 | 0.0715
in ethyl acetate | 0.0671 | 0.0791 | 0.0913 | 0.103 | 0.125 | 0.146 | 0.163 | 0.193 | 0.224
in isobutanol | 0.234 | 0.264 | 0.265 | 0.329 | 0.355 | 0.391 | 0.438 | 0.486 | 0.539
in isopentanol | 0.228 | 0.258 | 0.29 | 0.315 | 0.351 | 0.376 | 0.408 | 0.46 | 0.508
in n-pentanol | 0.266 | 0.315 | 0.365 | 0.412 | 0.465 | 0.513 | 0.552 | 0.631 | 0.679
in n-propanol | 0.317 | 0.361 | 0.412 | 0.468 | 0.516 | 0.567 | 0.612 | 0.7 | 0.803
in water | 0.002 | 0.0032 | 0.00414 | 0.00529 | 0.00738 | 0.00924 | 0.0111 | 0.0136 | 0.0169
